≈ marks a conversion by molar mass, not a printed value. Like-named read-outs stand apart in the source and are kept apart here.
Tests used:
Format in all cases: cell-based
[1] = test system: E. coli TG1/pUC21; test: MIC of amino acids and analogues on M9 agar, control strain TG1/pUC21; conditions: for MIC: Escherichia coli
Protocol: (§1) Therefore, the effect of the pYEAS, pYAHN, PYFIK, and pYGGA plasmids on susceptibility of the strain TG1 to some amino acids and amino acid analogues was tested. Overnight cultures of the E. coli strains TG1/pYEAS, TG1/pYAHN, TG1/pYFIK, TG1/pYGGA and of the control strains TG1/pUC21, TG1/pUC19 and TG1/pOK12 grown in M9 minimal medium with an appropriate antibiotic on a rotary shaker (10^9 cfu/ml) were diluted 1:100 in M9 minimal medium and grown for 5 h in the same medium. Then the log phase cultures thus obtained were diluted and about 10^4 alive cells were applied to well-dried test plates with M9 agar containing doubling increments of amino acids or analogues. Thus the minimum inhibition concentration (MIC) of these compounds were examined.

[2] = test system: E. coli TG1/pYAHN; test: microbe, parasite or virus in culture; conditions: for MIC: Escherichia coli, TG1/PYAHN, read-out: MIC (μg/ml) for E. coli TG1, harboring the plasmid pYAHN
Excerpt: as §1, with “The homology of the yeaS, yfiK, yahN and yggA gene products with the lysine transporter, LysE, of Corynebacterium glutamicum (Vrljic et al., Mol. Microbiol.,22, 815-826, 1996) and RhtB protein involved in homoserine excretion, indicates the analogues function for these proteins. It is well known that the increased expression of the genes involved in antibiotic and heavy metal efflux increases the level of resistance to the drugs (Nikaido, H. J. Bacteriology, 178, 5853-5859, 1996). Therefore,” for “Therefore,”

[3] = test system: E. coli TG1/pYEAS; test: microbe, parasite or virus in culture; conditions: for MIC: Escherichia coli, TG1/PYEAS, read-out: MIC (μg/ml) for E. coli TG1, harboring the plasmid pYEAS
Excerpt: as §1, with “The homology of the yeaS, yfiK, yahN and yggA gene products with the lysine transporter, LysE, of Corynebacterium glutamicum (Vrljic et al., Mol. Microbiol.,22, 815-826, 1996) and RhtB protein involved in homoserine excretion, indicates the analogues function for these proteins. It is well known that the increased expression of the genes involved in antibiotic and heavy metal efflux increases the level of resistance to the drugs (Nikaido, H. J. Bacteriology, 178, 5853-5859, 1996). Therefore,” for “Therefore,”

[4] = test system: E. coli TG1/pYFIK; test: microbe, parasite or virus in culture; conditions: for MIC: Escherichia coli, TG1/PYFIK, read-out: MIC (μg/ml) for E. coli TG1, harboring the plasmid pYFIK
Excerpt: as §1, with “The homology of the yeaS, yfiK, yahN and yggA gene products with the lysine transporter, LysE, of Corynebacterium glutamicum (Vrljic et al., Mol. Microbiol.,22, 815-826, 1996) and RhtB protein involved in homoserine excretion, indicates the analogues function for these proteins. It is well known that the increased expression of the genes involved in antibiotic and heavy metal efflux increases the level of resistance to the drugs (Nikaido, H. J. Bacteriology, 178, 5853-5859, 1996). Therefore,” for “Therefore,”

[5] = test system: E. coli TG1/pYGGA; test: microbe, parasite or virus in culture; conditions: for MIC: Escherichia coli, TG1/PYGGA, read-out: MIC (μg/ml) for E. coli TG1, harboring the plasmid pYGGA
Excerpt: as §1, with “The homology of the yeaS, yfiK, yahN and yggA gene products with the lysine transporter, LysE, of Corynebacterium glutamicum (Vrljic et al., Mol. Microbiol.,22, 815-826, 1996) and RhtB protein involved in homoserine excretion, indicates the analogues function for these proteins. It is well known that the increased expression of the genes involved in antibiotic and heavy metal efflux increases the level of resistance to the drugs (Nikaido, H. J. Bacteriology, 178, 5853-5859, 1996). Therefore,” for “Therefore,”

[6] = E. coli TG1 harboring pUC21 (control vector), M9 agar, doubling increments, read-out: MIC (μg/ml) for E. coli TG1, harboring the plasmid pUC21

## CN(C)CC(N)C(=O)O (racemic) [4-aza-DL-leucine]
[1]; [6]
  MIC: 100 µg/mL
[2]
  MIC: 100 µg/mL (≈ 0.757 mM)
[3]
  MIC: 100 µg/mL (≈ 0.757 mM)
[4]
  MIC: 100 µg/mL (≈ 0.757 mM)
[5]
  MIC: 100 µg/mL (≈ 0.757 mM)

## NCCSC[C@H](N)C(=O)O [AEC, S-(2-aminoethyl)-L-cysteine]
[1]; [6]
  MIC: 5 µg/mL
[2]
  MIC: 5 µg/mL (≈ 0.0304 mM)
[3]
  MIC: 5 µg/mL (≈ 0.0304 mM)
[4]
  MIC: 10 µg/mL (≈ 0.0609 mM)
[5]
  MIC: 200 µg/mL (≈ 1.22 mM)

## CCC(O)C(N)C(=O)O (stereo not drawn) [AHVA, α-amino-β-hydroxyvaleric-acid]
[1]; [6]
  MIC: 100 µg/mL
[2]
  MIC: 100 µg/mL (≈ 0.751 mM)
[3]
  MIC: 100 µg/mL (≈ 0.751 mM)
[4]
  MIC: 200 µg/mL (≈ 1.5 mM)
[5]
  MIC: 100 µg/mL (≈ 0.751 mM)

## N=C(N)NCCC[C@H](N)C(=O)O [L-arginine]
[1]; [6]
  MIC: 10000 µg/mL
[2]
  MIC: 10000 µg/mL (≈ 57.4 mM)
[3]
  MIC: 10000 µg/mL (≈ 57.4 mM)
[4]
  MIC: 10000 µg/mL (≈ 57.4 mM)
[5]
  MIC: 20000 µg/mL (≈ 115 mM)

## N[C@@H](CCC(=O)O)C(=O)[O-].[Na+] [L-glutamate (Na salt)]
[1]; E. coli TG1 harboring pUC21 (control vector), M9 agar, doubling increments
  MIC (μg/ml) for E. coli TG1, harboring the plasmid pUC21: 5000 μg/ml
[2]; E. coli TG1 harboring pYAHN (multicopy yahN), M9 agar, doubling increments
  MIC (μg/ml) for E. coli TG1, harboring the plasmid pYAHN: 5000 μg/ml
[3]; E. coli TG1 harboring pYEAS (multicopy yeaS), M9 agar, doubling increments
  MIC (μg/ml) for E. coli TG1, harboring the plasmid pYEAS: 20000 μg/ml
[4]; E. coli TG1 harboring pYFIK (multicopy yfiK), M9 agar, doubling increments
  MIC (μg/ml) for E. coli TG1, harboring the plasmid pYFIK: 10000 μg/ml
[5]; E. coli TG1 harboring pYGGA (multicopy yggA), M9 agar, doubling increments
  MIC (μg/ml) for E. coli TG1, harboring the plasmid pYGGA: 5000 μg/ml

## N[C@@H](Cc1c[nH]cn1)C(=O)O [L-histidine]
[1]; [6]
  MIC: 5000 µg/mL
[2]
  MIC: 5000 µg/mL (≈ 32.2 mM)
[3]
  MIC: 30000 µg/mL (≈ 193 mM)
[4]
  MIC: 10000 µg/mL (≈ 64.5 mM)
[5]
  MIC: 5000 µg/mL (≈ 32.2 mM)

## N[C@@H](CCO)C(=O)O [L-homoserine]
[1]; [6]
  MIC: 500 µg/mL
[2]
  MIC: 500 µg/mL (≈ 4.2 mM)
[3]
  MIC: 1000 µg/mL (≈ 8.39 mM)
[4]
  MIC: 1000 µg/mL (≈ 8.39 mM)
[5]
  MIC: 500 µg/mL (≈ 4.2 mM)

## NCCCC[C@H](N)C(=O)O [L-lysine]
[1]; TG1/PUC21, read-out: MIC (μg/ml) for E. coli TG1, harboring the plasmid pUC21
  MIC: 5000 µg/mL
[2]
  MIC: 5000 µg/mL (≈ 34.2 mM)
[3]
  MIC: 7500 µg/mL (≈ 51.3 mM)
[4]
  MIC: 7500 µg/mL (≈ 51.3 mM)
[5]
  MIC: 15000 µg/mL (≈ 103 mM)

## O=C(O)[C@@H]1CCCN1 [L-proline]
[1]; [6]
  MIC: 1000 µg/mL
[2]
  MIC: 2000 µg/mL (≈ 17.4 mM)
[3]
  MIC: 2000 µg/mL (≈ 17.4 mM)
[4]
  MIC: 5000 µg/mL (≈ 43.4 mM)
[5]
  MIC: 1000 µg/mL (≈ 8.69 mM)

## C[C@@H](O)[C@H](N)C(=O)O [L-threonine]
[1]; [6]
  MIC: 30000 µg/mL
[2]
  MIC: 30000 µg/mL (≈ 252 mM)
[3]
  MIC: 50000 µg/mL (≈ 420 mM)
[4]
  MIC: 40000 µg/mL (≈ 336 mM)
[5]
  MIC: 30000 µg/mL (≈ 252 mM)

## CC(C)[C@H](N)C(=O)O [L-valine]
[1]; [6]
  MIC: 0.5 µg/mL
[2]
  MIC: 0.5 µg/mL (≈ 0.00427 mM)
[3]
  MIC: 0.5 µg/mL (≈ 0.00427 mM)
[4]
  MIC: 0.5 µg/mL (≈ 0.00427 mM)
[5]
  MIC: 0.5 µg/mL (≈ 0.00427 mM)

## CCC(N)C(=O)O (stereo not drawn) [α-aminobutyric acid]
[1]; [6]
  MIC: 2500 µg/mL
[2]
  MIC: 2500 µg/mL (≈ 24.2 mM)
[3]
  MIC: > 10000 µg/mL
[4]
  MIC: 5000 µg/mL (≈ 48.5 mM)
[5]
  MIC: 2500 µg/mL (≈ 24.2 mM)

Reference: patent US6979560B1, “Eschericha bacteria overexpressing the yahn gene for feedback-insensitive amino acid production” (priority 1998, dated 2005)
